Entries after “also recorded” stand apart in the source; their conditions may differ.
Experiments:
EGFR = EGFR (Homo sapiens, UniProt P00533); experiment: Inhibition specificity, EGFR; assay type: biochemical; conditions: 5000 nM, average of two tests; read-out: Average Inhibition Rate (%) EGFR
SYK = biological target: T1, SYK (Homo sapiens, UniProt P43405); experiment: Inhibition specificity, SYK; assay type: biochemical; conditions: 5000 nM, average of two tests; read-out: Average Inhibition Rate (%) SYK
T1 construct: purchased BPS

corneal angiogenesis [1] = experiment: Rabbit corneal chemical burn model; assay type: in vivo, white rabbits; conditions: 100 uM subconjunctival injection then drops twice a day, 7 days
Experimental: This test tested in total 5 white rabbits who were 5-6 month old. After narcotizing, in the center of the cornea, the right eye was treated with a 6 mm diameter of round filter paper which was soaked with 0.1M NaOH, induced for 3 min to produce chemical burn modeling.

MET = biological target: T2, MET (Homo sapiens, UniProt P08581); experiment: Inhibition specificity, MET; assay type: biochemical; conditions: 5000 nM, average of two tests; read-out: Average Inhibition Rate (%) MET
T2 construct: purchased INVITROGEN

P38-α = biological target: T3, P38-α (Homo sapiens, UniProt Q16539); experiment: Inhibition specificity, P38-α; assay type: biochemical; conditions: 5000 nM, average of two tests; read-out: Average Inhibition Rate (%) P38-α
T3 construct: purchased AMPHORA

VEGFR2 (KDR) = biological target: T4, VEGFR2 (KDR) (Homo sapiens, UniProt P35968); experiment: Kinase inhibition dosage effect, KDR; assay type: biochemical; conditions: for IC50: [ATP] 80 μM, 3 hr; for Hill KDR: dose-effect curve fit
T4 construct: purchased Invitrogen

KIT = biological target: T5, KIT (Homo sapiens, UniProt P10721); experiment: Inhibition specificity, KIT; assay type: biochemical; conditions: 5000 nM, average of two tests; read-out: Average Inhibition Rate (%) KIT
T5 construct: purchased INVITROGEN

DMPK = biological target: T6, DMPK (Homo sapiens, UniProt Q09013); experiment: Inhibition specificity, DMPK; assay type: biochemical; conditions: 5000 nM, average of two tests; read-out: Average Inhibition Rate (%) DMPK
T6 construct: purchased INVITROGEN

MEK1 = biological target: T7, MEK1 (Homo sapiens, UniProt Q02750); experiment: Inhibition specificity, MEK1; assay type: biochemical; conditions: 5000 nM, average of two tests; read-out: Average Inhibition Rate (%) MEK1
T7 construct: purchased UPSTATE

JAK2 = biological target: T8, JAK2 (Homo sapiens, UniProt O60674); experiment: Inhibition specificity, JAK2; assay type: biochemical; conditions: 5000 nM, average of two tests; read-out: Average Inhibition Rate (%) JAK2
T8 construct: purchased INVITROGEN

CHEK1 = biological target: T9, CHEK1 (Homo sapiens, UniProt O14757); experiment: Inhibition specificity, CHEK1; assay type: biochemical; conditions: 5000 nM, average of two tests; read-out: Average Inhibition Rate (%) CHEK1
T9 construct: purchased CARNA

corneal angiogenesis [2] = experiment: Mice corneal chemical burn model; conditions: 100 uM subconjunctival injection then drops twice a day, 7 days
choroidal angiogenesis = experiment: Laser-induced choroidal angiogenesis (CNV) animal model; assay type: in vivo, c57/BL mice; conditions: 1 uM injected into the eye after laser, 5 days
Experimental: The […]57/BL (Jax Lab, US), and the experiment is conducted on laser-induced Choroidal Angiogenesis (CNV) animal model. This model is a widely used animal model used for studying the influence of a medicament on CNV development of wet macular degeneration. […] Only the laser points, which were observed as bubble indicating the fracture of Bruch membrane, were considered to be studied. Inject immediately after laser implementation: the right eye was injected 1 uM compound 2-2, and the left eye was injected PBS having the same volume as the medicament as a control. Kill the animal 5 days after injection and obtain the eyeball. After removing the anterior segment, vitreous body and retina, prepare flat mounts of choroid and meanwhile dye with isolectin. Take photos by Zeiss fluorescence microscope system and measure CNV area.

T4 sequence (P35968 20-1356, species assumed): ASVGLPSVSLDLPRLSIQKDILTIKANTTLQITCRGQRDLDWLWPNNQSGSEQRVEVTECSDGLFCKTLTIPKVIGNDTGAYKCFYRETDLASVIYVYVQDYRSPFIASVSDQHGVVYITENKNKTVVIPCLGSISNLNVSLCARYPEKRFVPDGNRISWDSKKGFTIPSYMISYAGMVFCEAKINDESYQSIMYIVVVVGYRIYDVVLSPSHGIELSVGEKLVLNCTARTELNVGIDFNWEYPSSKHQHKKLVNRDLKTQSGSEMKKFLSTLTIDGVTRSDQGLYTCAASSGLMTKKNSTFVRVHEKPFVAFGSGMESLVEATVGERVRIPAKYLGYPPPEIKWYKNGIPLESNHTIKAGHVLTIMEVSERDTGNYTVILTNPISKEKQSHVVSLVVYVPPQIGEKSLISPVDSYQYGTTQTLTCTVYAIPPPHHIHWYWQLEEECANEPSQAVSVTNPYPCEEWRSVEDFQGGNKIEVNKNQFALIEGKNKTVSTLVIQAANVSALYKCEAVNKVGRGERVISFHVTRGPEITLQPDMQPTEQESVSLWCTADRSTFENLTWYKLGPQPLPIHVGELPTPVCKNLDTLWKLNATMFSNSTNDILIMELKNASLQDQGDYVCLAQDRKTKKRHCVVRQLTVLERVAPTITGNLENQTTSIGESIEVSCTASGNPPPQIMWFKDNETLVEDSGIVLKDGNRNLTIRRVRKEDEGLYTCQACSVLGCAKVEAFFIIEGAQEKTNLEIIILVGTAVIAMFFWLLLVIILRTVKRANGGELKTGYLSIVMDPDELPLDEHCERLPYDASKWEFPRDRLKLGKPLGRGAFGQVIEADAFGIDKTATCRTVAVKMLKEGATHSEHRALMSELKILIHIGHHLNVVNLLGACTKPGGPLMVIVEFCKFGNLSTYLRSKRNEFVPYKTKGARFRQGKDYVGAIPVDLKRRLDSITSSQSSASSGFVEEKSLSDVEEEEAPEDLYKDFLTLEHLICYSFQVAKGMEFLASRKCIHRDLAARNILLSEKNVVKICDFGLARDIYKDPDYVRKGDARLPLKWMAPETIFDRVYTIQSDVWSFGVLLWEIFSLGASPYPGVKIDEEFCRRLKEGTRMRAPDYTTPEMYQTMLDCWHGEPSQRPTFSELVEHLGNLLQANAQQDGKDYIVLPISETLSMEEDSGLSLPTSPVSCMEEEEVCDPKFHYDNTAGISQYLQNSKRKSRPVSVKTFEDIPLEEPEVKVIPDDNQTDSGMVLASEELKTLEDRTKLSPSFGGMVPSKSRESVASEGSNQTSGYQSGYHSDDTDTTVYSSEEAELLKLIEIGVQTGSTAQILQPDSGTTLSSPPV
Chain of EGFR (P00533 25-1210, species assumed): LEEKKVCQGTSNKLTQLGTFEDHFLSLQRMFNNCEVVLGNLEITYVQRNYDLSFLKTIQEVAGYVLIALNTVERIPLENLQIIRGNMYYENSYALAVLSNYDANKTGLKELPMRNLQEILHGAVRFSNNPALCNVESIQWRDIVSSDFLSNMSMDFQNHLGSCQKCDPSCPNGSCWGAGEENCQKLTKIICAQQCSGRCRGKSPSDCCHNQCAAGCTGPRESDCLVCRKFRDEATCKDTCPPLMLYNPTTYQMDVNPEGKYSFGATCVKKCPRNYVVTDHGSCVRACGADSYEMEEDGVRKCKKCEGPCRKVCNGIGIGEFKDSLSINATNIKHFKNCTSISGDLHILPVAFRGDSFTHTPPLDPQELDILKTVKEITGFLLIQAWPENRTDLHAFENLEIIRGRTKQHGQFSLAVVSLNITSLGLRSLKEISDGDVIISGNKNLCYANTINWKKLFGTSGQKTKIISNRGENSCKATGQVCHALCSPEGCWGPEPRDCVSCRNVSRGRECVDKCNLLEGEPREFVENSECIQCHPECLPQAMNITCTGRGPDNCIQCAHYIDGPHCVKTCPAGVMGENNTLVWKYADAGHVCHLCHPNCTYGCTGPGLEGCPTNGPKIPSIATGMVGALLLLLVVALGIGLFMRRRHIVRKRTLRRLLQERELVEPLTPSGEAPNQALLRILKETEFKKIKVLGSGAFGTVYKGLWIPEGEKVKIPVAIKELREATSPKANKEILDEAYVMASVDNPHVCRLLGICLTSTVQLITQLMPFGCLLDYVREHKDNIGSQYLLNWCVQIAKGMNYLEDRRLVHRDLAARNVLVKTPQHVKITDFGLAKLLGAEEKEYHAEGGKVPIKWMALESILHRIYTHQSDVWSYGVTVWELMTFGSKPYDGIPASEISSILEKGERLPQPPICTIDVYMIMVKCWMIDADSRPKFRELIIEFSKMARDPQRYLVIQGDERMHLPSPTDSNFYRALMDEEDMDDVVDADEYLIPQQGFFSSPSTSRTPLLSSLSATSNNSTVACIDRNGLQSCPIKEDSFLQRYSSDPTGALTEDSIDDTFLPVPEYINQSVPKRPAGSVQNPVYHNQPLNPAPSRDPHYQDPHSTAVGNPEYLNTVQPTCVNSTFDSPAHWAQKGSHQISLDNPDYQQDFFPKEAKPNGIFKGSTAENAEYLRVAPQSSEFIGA
T8 sequence (O60674 whole entry, species assumed): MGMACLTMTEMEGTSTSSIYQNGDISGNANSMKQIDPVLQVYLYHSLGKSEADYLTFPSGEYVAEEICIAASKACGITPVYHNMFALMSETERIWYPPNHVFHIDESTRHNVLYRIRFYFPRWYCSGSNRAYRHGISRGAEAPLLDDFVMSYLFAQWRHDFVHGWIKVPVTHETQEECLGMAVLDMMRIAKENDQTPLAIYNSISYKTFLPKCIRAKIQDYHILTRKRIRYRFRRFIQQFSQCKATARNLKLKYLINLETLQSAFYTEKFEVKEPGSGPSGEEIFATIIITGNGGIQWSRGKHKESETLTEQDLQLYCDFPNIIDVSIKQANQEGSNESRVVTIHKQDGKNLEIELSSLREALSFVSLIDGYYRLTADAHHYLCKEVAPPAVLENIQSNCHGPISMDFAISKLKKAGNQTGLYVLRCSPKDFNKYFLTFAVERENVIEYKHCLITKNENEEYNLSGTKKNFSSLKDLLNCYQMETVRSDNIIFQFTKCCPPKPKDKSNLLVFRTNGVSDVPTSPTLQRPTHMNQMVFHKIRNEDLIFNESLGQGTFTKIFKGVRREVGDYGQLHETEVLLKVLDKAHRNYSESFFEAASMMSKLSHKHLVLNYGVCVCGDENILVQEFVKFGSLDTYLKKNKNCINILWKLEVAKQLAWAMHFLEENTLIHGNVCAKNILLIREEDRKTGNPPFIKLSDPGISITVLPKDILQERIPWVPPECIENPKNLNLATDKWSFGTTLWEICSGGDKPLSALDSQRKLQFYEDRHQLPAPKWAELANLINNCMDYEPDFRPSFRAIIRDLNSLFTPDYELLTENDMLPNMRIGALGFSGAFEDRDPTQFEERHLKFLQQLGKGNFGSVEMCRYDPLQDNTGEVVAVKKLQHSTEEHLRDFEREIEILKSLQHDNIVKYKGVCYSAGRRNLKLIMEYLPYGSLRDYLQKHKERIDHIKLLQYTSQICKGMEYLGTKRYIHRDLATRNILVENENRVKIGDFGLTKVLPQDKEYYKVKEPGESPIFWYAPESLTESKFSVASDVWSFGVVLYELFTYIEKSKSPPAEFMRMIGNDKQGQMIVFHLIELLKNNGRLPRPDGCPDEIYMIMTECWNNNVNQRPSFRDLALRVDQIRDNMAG
T5 sequence (P10721 26-976, species assumed): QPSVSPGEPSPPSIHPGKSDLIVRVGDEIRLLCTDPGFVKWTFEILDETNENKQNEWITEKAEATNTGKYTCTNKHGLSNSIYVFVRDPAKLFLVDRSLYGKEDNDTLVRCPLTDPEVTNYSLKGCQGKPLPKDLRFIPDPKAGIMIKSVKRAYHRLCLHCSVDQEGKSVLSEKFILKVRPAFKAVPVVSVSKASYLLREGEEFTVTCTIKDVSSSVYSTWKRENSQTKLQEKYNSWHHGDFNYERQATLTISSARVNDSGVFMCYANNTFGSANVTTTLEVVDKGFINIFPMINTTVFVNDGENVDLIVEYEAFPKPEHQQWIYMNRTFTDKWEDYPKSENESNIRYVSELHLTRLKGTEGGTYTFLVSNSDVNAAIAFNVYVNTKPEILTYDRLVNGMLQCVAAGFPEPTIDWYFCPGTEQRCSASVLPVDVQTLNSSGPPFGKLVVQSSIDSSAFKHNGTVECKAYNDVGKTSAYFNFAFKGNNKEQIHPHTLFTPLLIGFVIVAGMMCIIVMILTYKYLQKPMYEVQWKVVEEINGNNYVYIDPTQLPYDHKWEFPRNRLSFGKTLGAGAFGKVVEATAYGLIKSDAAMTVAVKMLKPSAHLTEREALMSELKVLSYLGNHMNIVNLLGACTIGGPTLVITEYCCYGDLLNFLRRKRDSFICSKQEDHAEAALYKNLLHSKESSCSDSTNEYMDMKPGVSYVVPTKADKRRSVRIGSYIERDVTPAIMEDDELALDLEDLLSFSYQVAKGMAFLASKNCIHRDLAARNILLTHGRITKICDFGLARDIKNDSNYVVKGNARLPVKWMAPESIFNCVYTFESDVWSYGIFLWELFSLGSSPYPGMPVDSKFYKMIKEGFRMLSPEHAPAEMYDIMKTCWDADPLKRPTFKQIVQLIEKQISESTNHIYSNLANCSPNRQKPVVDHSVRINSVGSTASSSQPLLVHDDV
T3 sequence (Q16539 whole entry): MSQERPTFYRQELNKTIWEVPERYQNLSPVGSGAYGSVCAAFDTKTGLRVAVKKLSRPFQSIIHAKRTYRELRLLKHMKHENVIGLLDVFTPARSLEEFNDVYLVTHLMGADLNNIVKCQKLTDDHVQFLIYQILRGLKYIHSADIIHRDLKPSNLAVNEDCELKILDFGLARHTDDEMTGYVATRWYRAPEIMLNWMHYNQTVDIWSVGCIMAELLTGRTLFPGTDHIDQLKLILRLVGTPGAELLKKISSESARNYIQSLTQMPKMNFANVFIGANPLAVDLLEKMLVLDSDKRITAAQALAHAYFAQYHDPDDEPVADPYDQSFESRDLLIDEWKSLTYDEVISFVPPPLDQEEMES

Compound | inhibition at 5 µM (EGFR) [%] | inhibition at 5 µM (SYK) [%] | effect on corneal angiogenesis (in words, FIG. 12) (corneal angiogenesis [1]) | inhibition at 5 µM (MET) [%] | inhibition at 5 µM (P38-α) [%] | inhibition activity on KDR (in words) (VEGFR2 (KDR)) | IC50 (VEGFR2 (KDR)) [µM] | Inhibition Rate on KDR (%) (VEGFR2 (KDR); concentration 0.0002823 (uM)) | Inhibition Rate on KDR (%) (VEGFR2 (KDR); concentration 0.0008468 (uM)) | Inhibition Rate on KDR (%) (VEGFR2 (KDR); concentration 0.0025403 (uM)) | Inhibition Rate on KDR (%) (VEGFR2 (KDR); concentration 0.0076208 (uM)) | Inhibition Rate on KDR (%) (VEGFR2 (KDR); concentration 0.0228624 (uM)) | Inhibition Rate on KDR (%) (VEGFR2 (KDR); concentration 0.0685871 (uM)) | Inhibition Rate on KDR (%) (VEGFR2 (KDR); concentration 0.2057613 (uM)) | Inhibition Rate on KDR (%) (VEGFR2 (KDR); concentration 0.6172840 (uM)) | Inhibition Rate on KDR (%) (VEGFR2 (KDR); concentration 1.8518519 (uM)) | Inhibition Rate on KDR (%) (VEGFR2 (KDR); concentration 5.5555556 (uM)) | Inhibition Rate on KDR (%) (VEGFR2 (KDR); concentration 16.6666667 (uM)) | Inhibition Rate on KDR (%) (VEGFR2 (KDR); concentration 50 (uM)) | Hill KDR (VEGFR2 (KDR)) | also measured
Nc1cc(Oc2ccc3c(C(=O)Nc4cccc(C(F)(F)F)c4)cccc3n2)ncn1 [Compound 2-1] | 5.35 | -2.15 | obviously reduces corneal angiogenesis | 3.83 | 16.9 | good inhibition activity | 0.0277 | 2.75 | 0.61 | 7.27 | 20.59 | 45.65 | 71.24 | 84.37 | 91.13 | 94.18 | 95.30 | 94.60 | 94.91 | 1.066 | inhibition at 5 µM (KIT): ~72%; inhibition at 5 µM (DMPK): 1.53%; inhibition at 5 µM (MEK1): 1.06%; inhibition at 5 µM (JAK2): ~21%; inhibition at 5 µM (CHEK1): 2.54%
Nc1nccc(Oc2ccc3c(C(=O)Nc4cccc(C(F)(F)F)c4)cccc3n2)n1 [Compound 2-2] | -0.625 | -5.87 | obviously reduces corneal angiogenesis | 2.46 | ~80 | good inhibition activity | 0.00731 | 5.09 | 11.82 | 25.59 | 49.36 | 78.25 | 90.14 | 92.95 | 94.82 | 97.30 | 96.50 | 94.47 | 95.99 | 1.175 | effect on corneal angiogenesis and bleeding (in words, FIG. 11) (corneal angiogenesis [2]): obviously reduces angiogenesis and bleeding; inhibition of choroidal angiogenesis (in words, FIG. 9) (choroidal angiogenesis): could obviously inhibit the choroidal angiogenesis; also recorded: obviously inhibiting choroidal angiogenesis; inhibition at 5 µM (KIT): ~92%; inhibition at 5 µM (DMPK): 4.5%; inhibition at 5 µM (MEK1): 4.96%; inhibition at 5 µM (JAK2): 7.83%; inhibition at 5 µM (CHEK1): 0.695%
